Assay results published in PMC5372259, “Purification, characterization and amino acid content of cholesterol oxidase produced by Streptomyces aegyptia NEAE 102” (BMC Microbiology, 2017).

Tested on: T1, cholesterol oxidase from Streptomyces aegyptia NEAE 102
T1 construct: gene choA; native extracellular enzyme purified from culture supernatant (ammonium sulfate, DEAE Sepharose CL-6B); 46 kDa by SDS-PAGE
Experiment: peroxidase-coupled H2O2 assay (4-aminoantipyrine/phenol, […] nm); Michaelis-Menten nonlinear regression
Format: biochemical
Conditions: pH 7.0 potassium phosphate, 37 °C, Triton X-100; O2 as co-substrate

Structure (SMILES): CC(C)CCC[C@@H](C)[C@H]1CC[C@H]2[C@@H]3CC=C4C[C@@H](O)CC[C@]4(C)[C@H]3CC[C@]12C [cholesterol]
- Km: 152 µM
